Reference: US10238689B2, “Methods for combating bacterial infections by killing persister cells with mitomycin C and/or cisplatin” (THE PENN STATE RESEARCH FOUNDATION, priority 2015, dated 2019)
Values after ≈ are worked out from the molar mass of the structure shown. Like-named read-outs stand apart in the source and are kept apart here.

Tests used:
E. coli K-12 cells = experiment: Test of DNA crosslinking compounds for antimicrobial activity; assay type: cell-based, Escherichia coli
Method: Stocks of cisplatin (2 mg/mL, Sigma-Aldrich, St. Louis, Mo., USA) were prepared in 0.1M NaClO4 and MMC (0.5 mg/mL, Fisher Scientific, Pittsburgh, Pa., USA) was prepared in water. Stocks of busulfan (2 mg/mL, Cayman Chemical, Ann Arbor, Mich., USA), melphalan (2 mg/mL, Cayman Chemical), dynemicin A (5 mg/mL, AdooQ, Irvine, Calif., USA), and tirapazamine (0.5 mg/mL, Sigma-Aldrich) were prepared in dimethylsulfoxide, the stock of cyclophosphamide (0.5 mg/mL, Cayman Chemical) was prepared in water, and the stock of carmustine (214 mg/mL, Enzo Life Sciences, Farmingdale, N.Y., USA) was prepared in ethanol.
In this Example we tested seven other DNA crosslinking compounds: busulfan (100 μg/mL), carmustine (100 μg/mL) cisplatin (100 μg/mL), cyclophosphamide (100 μg/mL), dynemicin A (200 μg/mL), melphalan (100 μg/mL), and tirapazamine (10 μg/mL).

E. coli K-12 [1] = experiment: Planktonic antibiotic killing assay; assay type: cell-based, Escherichia coli; conditions: for persistence (surviving population): late-stationary phase, MMC 10, ciprofloxacin 5, gentamicin 10 μg/mL, 3 h
Method: (§1) In order to obtain exponential and mid-stationary phase cultures in LB, buffered LB or TSB, overnight cultures (16 h) were diluted 1:1000 in fresh medium and grown to the desired turbidity (i.e., a turbidity below 2 at 600 nm for exponential phase and a turbidity of 3 to 4 at 600 nm for mid-stationary phase). Late-stationary phase cultures in LB or buffered LB were obtained by growing overnight cultures (16 h). In order to obtain exponential and late-stationary phase cultures in M9-glucose, overnight cultures (16 h) were washed diluted 1:1000 in M9-glucose and grown for the desired period of time (i.e., a turbidity of 0.4 at 600 nm for exponential phase and 24 h of growth for late-stationary phase). Anaerobically grown cultures were maintained with ˜20% CO2, ˜79% N2, and ˜1% H2. In order to obtain rifampicin-induced persister cultures in buffered LB, overnight cultures (16 h) were diluted 1:1000 in fresh medium and grown to a turbidity of 0.8 at 600 nm. Cultures were exposed to rifampicin (100 μg/mL) for 30 min, centrifuged, and resuspended in fresh medium to remove the rifampicin.

E. coli K-12 [2] = experiment: Minimum inhibitory concentration (MIC) assay; assay type: cell-based, Escherichia coli; conditions: Escherichia coli, K12, 16 h, lack of turbidity, read-out: MIC
Method: Minimum inhibitory concentration (MIC) assay. To determine the MICs of cisplatin for E. coli K-12, enterohemorrhagic E. coli (EHEC), S. aureus, and P. aeruginosa (PAO1 and PA14), freshly inoculated cultures (at least two independent cultures) in buffered LB (TSB for S. aureus) were incubated for 16 h with varying concentrations of cisplatin, and growth inhibition was assayed by the lack of turbidity.

EHEC infection = assay type: in vivo, Caenorhabditis elegans; conditions: MMC 10 μg/mL, ciprofloxacin 5 μg/mL, ampicillin 100 μg/mL, 6 h exposure; four replicates
E. coli BW25113 = experiment: Validation of persisters (three rounds of the persister assay); assay type: cell-based, Escherichia coli; conditions: for survival rate: ciprofloxacin 5 μg/mL or ampicillin 100 μg/mL, 3 h
Method: Validation of persisters. To validate that the persister cells are tolerant to antibiotics, not spontaneous resistant mutants, three rounds of the persister assay were performed. Overnight (16 h) cultures of E. coli BW25113 were diluted 1:1000 with fresh buffered LB and grown to a turbidity of ˜0.8 at 600 nm. […] After the first round of antibiotic treatment, a 1 mL sample was centrifuged at 10,000 rpm for 3 min, and the cells were resuspended in 1 mL of normal saline. […] For the second and third rounds, cell suspensions were diluted 1:100 with fresh buffered LB and regrown to a turbidity of ˜0.8 at 600 nm and used for antibiotic treatment followed by the drop assay.

E. coli O157:H7 (EHEC) = experiment: Planktonic antibiotic killing assay; assay type: cell-based, Escherichia coli; conditions: late-stationary phase, M9-glucose; MMC 10 μg/mL, ciprofloxacin 5 μg/mL, 3 h
Method: as §1

[3] = tested on: E. coli K-12 BW25113 VBNC cultures; experiment: VBNC antibiotic killing assay; assay type: cell-based, Escherichia coli; conditions: culturable population of VBNC cultures; MMC 10 μg/mL, ciprofloxacin 5 μg/mL, 16 h
Method: Overnight cultures (16 h) of E. coli K-12 BW25113 grown in LB were diluted 1:1000 in LB and grown to a turbidity of 3.0 at 600 nm. Cells were washed three times with 0.85% NaCl to remove nutrients and incubated in 0.85% NaCl for 32 days until the VBNC population was ˜1,000-fold higher than the culturable population. […] Samples (0.5 mL) were diluted 1:1 with LB to stimulate cellular respiration for 10 min prior to staining with 1 μL of 1 mM RedoxSensor™ Green dye and 1 μL of 20 mM propidium iodide. Samples were visualized in a hemocytometer (Hausser Scientific, Horsham, Pa., USA) using an Olympus BX61 confocal microscope (Olympus, Tokyo, Japan) at 200× magnification in order to determine viability of the VBNC population. Cell counting data was averaged from four images and experiment was performed with at least two independent cultures.

[4] = tested on: S. aureus (methicillin sensitive); experiment: Planktonic antibiotic killing assay; assay type: cell-based, Staphylococcus aureus; conditions: rich medium (TSB), MMC 10 μg/mL, ciprofloxacin 5 μg/mL, 3 h
Method: as §1

[5] = tested on: S. aureus biofilm cultures; experiment: Biofilm antibiotic killing assay; assay type: cell-based, Staphylococcus aureus; conditions: minimal medium (modified M9-glucose), 24 h treatment, MMC 10 μg/mL, ciprofloxacin 5 μg/mL
E. coli K-12 [6] = assay type: cell-based, Escherichia coli; conditions: late stationary phase (16 h of growth), buffered LB; cisplatin 500 μg/mL (5×MIC), ciprofloxacin 5 μg/mL (100×MIC), 8 h
Method: Persister cell killing and eradication assays (planktonic cells). For the time course experiment, late stationary phase cells of E. coli K-12 (wild-type and isogenic mutants) were prepared by growing cells overnight (16 h) in LB medium buffered with 100 mM KPO4 at pH 7.0 (buffered LB). A 1 mL culture was used for a drop (10 μL×3) assay to check cell viability at 0 h (i.e., before antibiotic treatment). […] At 1 h intervals, 1 mL culture was centrifuged at 10,000 rpm for 3 min, the supernatant was discarded, the cells were resuspended in 1 mL of normal saline (0.85% NaCl), and the cell suspension was serially diluted for a drop assay to check cell viability.
To test for eradication, the wild-type E. coli K-12 cells were treated with cisplatin for 12 h, a 1 mL sample was centrifuged, the cell pellet was resuspended in 150 μL of normal saline, and the cells were spread on LB agar to check cell viability. Another 1 mL culture was diluted 1:10 with fresh buffered LB and the cells were incubated to allow any remaining cells to replicate. After 12 h, 18 h, and 24 h, 1 mL samples were centrifuged, resuspended in 150 μL of normal saline and spread on LB agar plates to check cell viability. At least two independent cultures were used.

[7] = tested on: E. coli K-12 persister cells; experiment: Rifampicin-induced persister cell killing assay; assay type: cell-based, Escherichia coli
Method: Rifampicin-pretreatment was used to convert nearly all the E. coli exponentially-growing cells to persister cells. In brief, overnight cultures (16 h) of E. coli BW25113 were diluted 1:1000 in buffered LB and grown to a turbidity of 0.8 at 600 nm (250 mL flask, 250 rpm). Cultures were treated with rifampicin (100 μg/mL) for 30 min (250 mL flask, 250 rpm), centrifuged, and resuspended in fresh medium to remove the rifampicin. A 1 mL culture was used for a drop assay to check cell viability at 0 h. […] After 3 h, 1 mL of culture was centrifuged at 10,000 rpm for 3 min, the supernatant was discarded, the cells were resuspended in 1 mL of normal saline, and the cell suspension was serially diluted for a drop assay to check cell viability. In addition, 1 mL samples were centrifuged, and the cell pellet resuspended in 150 μL of normal saline and spread on LB agar.
To test whether lower concentrations than 500 μg/mL of cisplatin generate resistant mutants, 5 mL cultures of rifampicin-induced persister cells were treated with 200 μg/mL of cisplatin and cells were enumerated by the drop assay using LB agar, LB agar with 200 μg/mL of cisplatin (LBCP200), and LB agar with 500 μg/mL of cisplatin (LBCP500).

EHEC biofilm cultures = conditions: M9-glucose, 24 h treatment, MMC 10 μg/mL, ciprofloxacin 5 μg/mL

O=P1(N(CCCl)CCCl)NCCCO1 (centres unmarked) [cyclophosphamide]
antimicrobial activity (E. coli K-12 cells; 100 μg/mL): only cisplatin exhibited antimicrobial activity

Nc1n[n+]([O-])c2ccccc2[n+]1[O-] [tirapazamine]
antimicrobial activity (E. coli K-12 cells; 10 μg/mL): only cisplatin exhibited antimicrobial activity

COC1=C(C(=O)O)[C@H](C)[C@@]23O[C@]24c2cc(O)c5c(c2N[C@H]3C#C/C=C\C#C[C@H]14)C(=O)c1c(O)ccc(O)c1C5=O [dynemicin A]
antimicrobial activity (E. coli K-12 cells): only cisplatin exhibited antimicrobial activity

CS(=O)(=O)OCCCCOS(C)(=O)=O [busulfan]
antimicrobial activity (E. coli K-12 cells; 100 μg/mL): only cisplatin exhibited antimicrobial activity

gentamicin
persistence (surviving population) (E. coli K-12 [1]; M9-glucose): 44±5%

CC1(C)S[C@@H]2[C@H](NC(=O)[C@H](N)c3ccccc3)C(=O)N2[C@H]1C(=O)O [ampicillin]
MIC (E. coli K-12 [2]): 10 µg/mL (≈ 28.6 µM) | survival of the EHEC-infected worms (EHEC infection): enhanced the survival | resistant colonies on antibiotic agar (E. coli BW25113; LBCipro5 or LBAmp100 agar): no colonies were detected | survival rate (E. coli BW25113; round 1): 0.001±0.001% | survival rate (E. coli BW25113; round 2): 0.0001±0.0000% | survival rate (E. coli BW25113; round 3): 0.0001±0.0000%

O=NN(CCCl)C(=O)NCCCl [carmustine]
antimicrobial activity (E. coli K-12 cells; 100 μg/mL): only cisplatin exhibited antimicrobial activity

O=C(O)c1cn(C2CC2)c2cc(N3CCNCC3)c(F)cc2c1=O [ciprofloxacin]
MIC (E. coli K-12 [2]): 0.05 µg/mL (≈ 0.151 µM) | survival (E. coli K-12 [1]; anaerobic, late-stationary phase cells in rich medium (LB)): 0.44±0.08% | susceptibility of exponential-phase cultures (E. coli K-12 [1]; exponential phase, M9-glucose): similarly susceptible | persistence (surviving population) (E. coli K-12 [1]; M9-glucose): 10±1% | cells survived (E. coli O157:H7 (EHEC)): 1.2±0.1% | survival of the culturable population [3]: 0.40±0.05% | survival ([4]; exponential phase): 0.55±0.04% | survival ([4]; mid-stationary phase): 2.2±0.1% | survival [5]: 18±2% | survival of the EHEC-infected worms (EHEC infection): enhanced the survival | survival rate (E. coli BW25113; round 1): 0.045±0.008% | survival rate (E. coli BW25113; round 2): 0.03±0.01% | survival rate (E. coli BW25113; round 3): 0.012±0.002% | time course dependent killing (E. coli K-12 [6]): had little activity | surviving fraction of persister cells [7]: 9±1% | cells surviving (EHEC biofilm cultures): 3±1%

N[C@@H](Cc1ccc(N(CCCl)CCCl)cc1)C(=O)O [melphalan]
antimicrobial activity (E. coli K-12 cells; 100 μg/mL): only cisplatin exhibited antimicrobial activity
